The source of these data is patent US12209102B2, “Heterocyclic compounds and uses thereof” (Kumquat Biosciences Inc., priority 2022, dated 2025).

Test [1] concerns the target T1, K-Ras WT (Homo sapiens, UniProt P01116).
T1 construct: made in house; host or cells: E. coli BL21 (DE3)
Put plainly: HTRF resonance energy transfer assay, K-Ras WT / SOS1 interaction. The conditions noted are these: HTRF assay of Example 5; read-out: IC50 against K-Ras WT. Format: biochemical. An outline of the steps: (§1)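 Buffer about 5 mM HEPES pH 7.4 with ~150 mM NaCl, ~1 mM DTT, 0.05% BSA, 0.0025% (v/v) Igepal. Protein constructs used at molarity matching the IC50 range studied (e.g. ~500 nM). FRET between tagged K-Ras and hSOS1 measured after short incubation.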

Test [2] addresses T2, K-Ras G12S (Homo sapiens, UniProt P01116, G12S).
T2 construct: made in house; host or cells: E. coli BL21 (DE3)
Nature of the test: HTRF resonance energy transfer assay, K-Ras G12S / SOS1 interaction. Format: biochemical. The conditions noted are these: HTRF assay of Example 5; read-out: IC50 against K-Ras G12S. An outline of the steps: as §1

For test [3], the system named is A549 cells. Nature of the test: Ras cellular assay, growth of cells with K-Ras G12S mutation (CellTiter-Glo). Format: cell-based. The conditions noted are these: Homo sapiens, cell growth, Example 9, G12S mutation, read-out: IC50 against A549 cells. An outline of the steps:
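Growth inhibition IC50 values come from four-parameter fits of CellTiter-Glo luminescence, read about 6 days after compound addition. G12S-mutant A549 cells (e.g. 800/well, RPMI-1640 + 10% heat-inactivated FBS) were plated in tissue-culture-treated or ultra-low-attachment 384-well format. Dosing began the following day with serial dilutions, e.g. 10 points, 3-fold.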

Test [4] concerns SW620 cells. Nature of the test: Ras cellular assay, growth of cells with K-Ras G12V mutation (CellTiter-Glo). Format: cell-based. The conditions noted are these: Homo sapiens, SW-620; cell growth, Example 9, G12V mutation; read-out: IC50 against SW620 cells. A digest of the protocol: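 IC50 values came from a four-parameter fit of CellTiter-Glo viability, read roughly 6 days after dosing with e.g. a 10-point threefold dilution series. G12V-mutant SW620 cells (e.g. 800 per well) had been plated the previous day in RPMI-1640/10% heat-inactivated FBS, on tissue culture-treated or ultra-low attachment plates.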

In test [5] the target is T3, K-Ras G12D (Homo sapiens, UniProt P01116, G12D).
T3 construct: made in house; host or cells: E. coli BL21 (DE3)
T3 sequence (P01116 1-188 isoform P01116-2 G12D): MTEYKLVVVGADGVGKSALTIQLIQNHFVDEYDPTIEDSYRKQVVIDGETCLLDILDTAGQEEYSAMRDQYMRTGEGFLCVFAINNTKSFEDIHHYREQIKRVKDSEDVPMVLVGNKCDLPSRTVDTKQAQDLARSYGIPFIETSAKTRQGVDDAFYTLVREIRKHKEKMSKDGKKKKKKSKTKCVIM
Put plainly: HTRF resonance energy transfer assay, K-Ras G12D / SOS1 interaction. Format: biochemical. The conditions noted are these: HTRF assay of Example 5; read-out: IC50 against K-Ras G12D. An outline of the steps: as §1

Test [6] has as its system GP2D cells. Nature of the test: Ras cellular assay, growth of cells with K-Ras G12D mutation (CellTiter-Glo). Format: cell-based. The conditions noted are these: cell growth, Example 9, G12D mutation, read-out: IC50 against GP2D cells.
The target of test [7] is T4, K-Ras G12V (Homo sapiens, UniProt P01116, G12V).
T4 construct: made in house; host or cells: E. coli BL21 (DE3)
T4 sequence (P01116 1-188 isoform P01116-2 G12V): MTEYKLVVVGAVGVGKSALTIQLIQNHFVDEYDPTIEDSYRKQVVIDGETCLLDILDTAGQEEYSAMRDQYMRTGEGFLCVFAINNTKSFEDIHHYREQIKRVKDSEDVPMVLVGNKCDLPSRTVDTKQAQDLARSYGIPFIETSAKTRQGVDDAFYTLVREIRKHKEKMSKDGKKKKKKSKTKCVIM
Nature of the test: HTRF resonance energy transfer assay, K-Ras G12V / SOS1 interaction. Format: biochemical. The conditions noted are these: HTRF assay of Example 5; read-out: IC50 against K-Ras G12V. An outline of the steps:
as §1

T1 sequence (P01116 1-188 isoform P01116-2): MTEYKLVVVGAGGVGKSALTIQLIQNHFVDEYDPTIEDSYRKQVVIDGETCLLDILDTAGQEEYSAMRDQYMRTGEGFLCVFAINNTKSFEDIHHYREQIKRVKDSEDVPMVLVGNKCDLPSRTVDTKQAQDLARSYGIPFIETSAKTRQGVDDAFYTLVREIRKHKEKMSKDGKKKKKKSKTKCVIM
T2 sequence (P01116 1-188 isoform P01116-2 G12S): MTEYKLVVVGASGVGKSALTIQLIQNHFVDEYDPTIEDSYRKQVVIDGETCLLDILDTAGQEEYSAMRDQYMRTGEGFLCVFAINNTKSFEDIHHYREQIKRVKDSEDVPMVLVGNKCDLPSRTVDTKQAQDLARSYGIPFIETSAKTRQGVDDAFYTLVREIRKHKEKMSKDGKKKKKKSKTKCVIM

Regarding `N#Cc1c(N)sc2c(F)ccc(-c3c(Cl)c4c5c(nc(OC[C@@]67CCCN6C[C@H](F)C7)nc5c3F)N(C3CC35CN(C=O)C5)CCO4)c12` (stereo partly drawn) [Compound 957, 2-amino-4-(8-chloro-10-fluoro-2-(((2R,7aS)-2-fluorotetrahydro-1H-pyrrolizin-7a(5H)-yl)methoxy)-4-(5-formyl-5-azaspiro[2.3]hexan-1-yl)-5,6-dihydro-4H-[1,4]oxazepino[5,6,7-de]quinazolin-9-yl)-7-fluorobenzo[b]thiophene-3-carbonitrile], the IC50 in test [1] was under 100 nM; in test [2], under 100 nM; in test [3], under 5 µM; in test [4], under 5 µM; in test [5], under 100 nM; in test [6], under 500 nM. Moreover, in test [7], the IC50 is under 100 nM.

For the molecule `N#Cc1c(N)sc2c(F)ccc(-c3c(Cl)c4c5c(nc(OC[C@@]67CCCN6C[C@H](F)C7)nc5c3F)N(C3CCN(C(=O)[C@@H]5CCOC5)C3)CCO4)c12` (stereo partly drawn) [Compound 960, 2-amino-4-(8-chloro-10-fluoro-2-(((2R,7aS)-2-fluorotetrahydro-1H-pyrrolizin-7a(5H)-yl)methoxy)-4-(1-((R)-tetrahydrofuran-3-carbonyl)pyrrolidin-3-yl)-5,6-dihydro-4H-[1,4]oxazepino[5,6,7-de]quinazolin-9-yl)-7-fluorobenzo[b]thiophene-3-carbonitrile], the IC50 in test [1] is under 100 nM; in test [2], under 100 nM; in test [3], under 5 µM; in test [4] it was under 5 µM; in test [5], under 100 nM; in test [6] it was under 500 nM. Further, in test [7], the IC50 was under 100 nM.

In the case of `CS(=O)(=O)N1CCC(N2CCOc3c(Cl)c(-c4ccc(F)c5sc(N)c(C#N)c45)c(F)c4nc(OC[C@@]56CCCN5C[C@H](F)C6)nc2c34)C1` (stereo partly drawn) [Compound 966, 2-amino-4-(8-chloro-10-fluoro-2-(((2R,7aS)-2-fluorotetrahydro-1H-pyrrolizin-7a(5H)-yl)methoxy)-4-(1-(methylsulfonyl)pyrrolidin-3-yl)-5,6-dihydro-4H-[1,4]oxazepino[5,6,7-de]quinazolin-9-yl)-7-fluorobenzo[b]thiophene-3-carbonitrile], the IC50 in test [1] was under 100 nM; in test [2], under 100 nM; in test [3], under 5 µM; in test [4], under 5 µM; in test [5], under 100 nM; in test [6], under 500 nM. For the same molecule, the concentration for half-maximal inhibition (IC50) in test [7] is under 100 nM.

With `N#Cc1c(N)sc2c(F)ccc(-c3c(Cl)c4c5c(nc(OC[C@@]67CCCN6C[C@H](F)C7)nc5c3F)N(C3CCNC3)CCO4)c12` (stereo partly drawn) [Compound 969, 2-amino-4-(8-chloro-10-fluoro-2-(((2R,7aS)-2-fluorotetrahydro-1H-pyrrolizin-7a(5H)-yl)methoxy)-4-(pyrrolidin-3-yl)-5,6-dihydro-4H-[1,4]oxazepino[5,6,7-de]quinazolin-9-yl)-7-fluorobenzo[b]thiophene-3-carbonitrile], the IC50 in test [1] is under 100 nM; in test [2], under 100 nM; in test [3] it was under 5 µM; in test [4] it was under 5 µM; in test [5], under 100 nM; in test [6], under 500 nM. Moreover, in test [7], the concentration for half-maximal inhibition (IC50) was under 100 nM.

Consider `N#Cc1c(N)sc2c(F)ccc(-c3c(Cl)c4c5c(nc(OC[C@@]67CCCN6C[C@H](F)C7)nc5c3F)N(C35COC(CF)(C3)C5)CCO4)c12` [Compound 972, 2-amino-4-(8-chloro-10-fluoro-4-(1-(fluoromethyl)-2-oxabicyclo[2.1.1]hexan-4-yl)-2-(((2R,7aS)-2-fluorotetrahydro-1H-pyrrolizin-7a(5H)-yl)methoxy)-5,6-dihydro-4H-[1,4]oxazepino[5,6,7-de]quinazolin-9-yl)-7-fluorobenzo[b]thiophene-3-carbonitrile], for which the IC50 in test [1] is under 100 nM; in test [2], under 100 nM; in test [3], under 5 µM; in test [4] it was under 5 µM; in test [5], under 100 nM; in test [6], under 500 nM. For the same molecule, in test [7], the concentration for half-maximal inhibition (IC50) is under 100 nM.

Consider `N#Cc1c(N)sc2c(F)ccc(-c3c(Cl)c4c5c(nc(OC[C@@]67CCCN6C[C@H](F)C7)nc5c3F)N(C3CCN(C(=O)[C@@H]5CCCO5)C3)CCO4)c12` (stereo partly drawn) [Compound 984, 2-amino-4-(8-chloro-10-fluoro-2-(((2R,7aS)-2-fluorotetrahydro-1H-pyrrolizin-7a(5H)-yl)methoxy)-4-(1-((S)-tetrahydrofuran-2-carbonyl)pyrrolidin-3-yl)-5,6-dihydro-4H-[1,4]oxazepino[5,6,7-de]quinazolin-9-yl)-7-fluorobenzo[b]thiophene-3-carbonitrile], for which the IC50 in test [1] was under 100 nM; in test [2], under 100 nM; in test [3], under 5 µM; in test [4], under 5 µM; in test [5] it was under 100 nM; in test [6], under 500 nM. The IC50 in test [7] is under 100 nM.

`CN(C)CCN1CCOc2c(Cl)c(-c3ccc(F)c4sc(N)c(C#N)c34)c(F)c3nc(OC[C@@]45CCCN4C[C@H](F)C5)nc1c23` [Compound 994, 2-amino-4-(8-chloro-4-(2-(dimethylamino)ethyl)-10-fluoro-2-(((2R,7aS)-2-fluorotetrahydro-1H-pyrrolizin-7a(5H)-yl)methoxy)-5,6-dihydro-4H-[1,4]oxazepino[5,6,7-de]quinazolin-9-yl)-7-fluorobenzo[b]thiophene-3-carbonitrile]: the IC50 is under 100 nM in test [1]; under 100 nM in test [2]; under 5 µM in test [3]; under 5 µM in test [4]; under 100 nM in test [5]; under 500 nM in test [6]. Moreover, the IC50 in test [7] was under 100 nM.

Turning to `N#Cc1c(N)sc2c(F)ccc(-c3c(Cl)c4c5c(nc(OC[C@@]67CCCN6C[C@H](F)C7)nc5c3F)N(C3CCCN(C(=O)C(F)F)C3)CCO4)c12` (stereo partly drawn) [Compound 998, 2-amino-4-(8-chloro-4-(1-(2,2-difluoroacetyl)piperidin-3-yl)-10-fluoro-2-(((2R,7aS)-2-fluorotetrahydro-1H-pyrrolizin-7a(5H)-yl)methoxy)-5,6-dihydro-4H-[1,4]oxazepino[5,6,7-de]quinazolin-9-yl)-7-fluorobenzo[b]thiophene-3-carbonitrile], the IC50 in test [1] was under 100 nM; in test [2] it was under 100 nM; in test [3], under 5 µM; in test [4], under 5 µM; in test [5], under 100 nM; in test [6], under 500 nM. In test [7], the IC50 was under 100 nM.

On to `CC(C(F)F)N1CCOc2c(Cl)c(-c3ccc(F)c4sc(N)c(C#N)c34)c(F)c3nc(OC[C@@]45CCCN4C[C@H](F)C5)nc1c23` (stereo partly drawn) [Compound 1000, 2-amino-4-(8-chloro-4-(1,1-difluoropropan-2-yl)-10-fluoro-2-(((2R,7aS)-2-fluorotetrahydro-1H-pyrrolizin-7a(5H)-yl)methoxy)-5,6-dihydro-4H-[1,4]oxazepino[5,6,7-de]quinazolin-9-yl)-7-fluorobenzo[b]thiophene-3-carbonitrile], for which the half-maximal inhibitory concentration (IC50) in test [1] was under 100 nM; in test [2], under 100 nM; in test [3] it was under 5 µM; in test [4], under 5 µM; in test [5] it was under 100 nM; in test [6] it was under 500 nM. The IC50 in test [7] is under 100 nM.

With `N#Cc1c(N)sc2c(F)ccc(-c3c(Cl)c4c5c(nc(OC[C@@]67CCCN6C[C@H](F)C7)nc5c3F)N(CC(F)F)CC(CO)O4)c12` (stereo partly drawn) [Compound 1002, 2-amino-4-(8-chloro-4-(2,2-difluoroethyl)-10-fluoro-2-(((2R,7aS)-2-fluorotetrahydro-1H-pyrrolizin-7a(5H)-yl)methoxy)-6-(hydroxymethyl)-5,6-dihydro-4H-[1,4]oxazepino[5,6,7-de]quinazolin-9-yl)-7-fluorobenzo[b]thiophene-3-carbonitrile], the IC50 in test [1] is under 100 nM; in test [2] it was under 100 nM; in test [3], under 5 µM; in test [4] it was under 5 µM; in test [5], under 100 nM; in test [6], under 500 nM. Moreover, the IC50 in test [7] is under 100 nM.
